Paper PMC11501026, “L-Arginine and asymmetric dimethylarginine (ADMA) transport across the mouse blood-brain and blood-CSF barriers: Evidence of saturable transport at both interfaces and CNS to blood efflux” (PLOS ONE, 2024)
Several values for one entry are separate records, joined by “and”; a condition that tells them apart may be missing. Equal values may be shown once. Read-outs that look alike come from different tables or passages of the source.

Assays:
[1] = in situ brain/choroid plexus perfusion: CNS uptake of [^3H]-arginine, [^3H]-ADMA and [^14C]-sucrose (multiple-time and single-time uptake analysis); settings: for Kin: single-time point analysis, corrected for [^14C]-sucrose; for Kin / [^3H]-ADMA/ [^3H]-arginine, rate of uptake: 10-minute perfusion; for ability to cross the blood-brain and blood-CSF barriers: in situ perfusion; for Kp at 30 min, […] / Kp at […], […]: male, BALB/c, mouse
Experimental: All animals used in procedures were adult male BALB/c mice (between 23 g and 25 g) sourced from Harlan Laboratories, Oxon, UK, unless otherwise stated.
Animals were weighed immediately before the administration of the anaesthetic to ensure correct dosage. Domitor® (medetomidine hydrochloride) and Vetalar® (ketamine) were both purchased from Harlan Laboratories (Cambridge, UK). All animals were terminally anaesthetised (2 mg/kg Domitor® and 150 mg/kg Vetalar® injected intraperitoneally), and a lack of self-righting and paw-withdrawal reflexes (as surrogate indicators of consciousness) thoroughly checked prior to and during all procedures. If needed, additional anaesthetic was administered via the same route. […] At the end of the in situ brain perfusion procedure the animal was killed by decapitated under non-recovery anaesthesia. Animals were heparinised with 100 units heparin (in 0.9% m/v NaCl(aq), Harlan Laboratories; Oxon, UK), administered via the intraperitoneal route prior to surgery.
The in situ brain/choroid plexus perfusion method is designed to directly perfuse the brain with artificial plasma via a cannula placed in the heart. Artificial plasma is prepared to mimic the ionic composition of blood, and transporter inhibitors can be added in known concentrations and delivered to the brain for defined periods of time.
The left ventricle of the heart was cannulated with a 25G x 10 mm butterfly-winged needle connected to the perfusion circuit. […] The right atrium of the heart was sectioned to allow outflow of the artificial plasma. […] Radiolabelled and unlabelled test molecules were infused into the inflowing artificial plasma for periods up to 30 minutes.
At the set perfusion time a CSF sample was taken by inserting a pulled glass micropipette connected to silicon tubing and a syringe into the cisterna magna. Gentle suction was applied, and CSF was withdrawn. Only clear CSF samples were processed and taken for analysis. Samples contaminated with blood were discarded. The animal was then decapitated and the brain removed. Specific brain samples including the circumventricular organs (CVOs) were taken using a Leica S4E L2 stereomicroscope (Leica; Buckinghamshire, UK). The brain samples included the frontal cortex, caudate nucleus, occipital cortex, hippocampus, hypothalamus, thalamus, pons and cerebellum. The CVOs included the choroid plexus, pituitary gland and pineal gland.
All samples (brain regions, capillary depletion brain homogenate, pellet and supernatant, CVOs, CSF and plasma samples) were solubilised in 0.5 mL tissue solubiliser (Solvable; Perkin-Elmer; Boston, MA, USA). After incubating the samples at room temperature for 48 h, 4 mL scintillation fluid (Lumasafe®; Perkin-Elmer; Boston, MA, USA) was added to each before vigorous vortexing.

[2] = capillary depletion analysis after in situ brain perfusion; assay type: in vivo, mouse; settings: 10-minute perfusion; for Kin: single-time point analysis, corrected for [^14C]-sucrose
Experimental: The microvasculature within a sample of brain tissue can be separated from the brain parenchyma using capillary depletion analysis. Following perfusion, the remaining brain tissue after microdissection of the regions described above (typically 200–300 mg) underwent capillary depletion following a method modified for mouse. […]

hCMEC/D3 cells = settings: [^3H]-arginine 7 nM; hCMEC/D3 accumulation; cited from earlier work
[3] = octanol:saline partition coefficient; settings: pH 7.4; for octanol-saline partition coefficient: mean ± SEM of 3 tubes
Experimental: (§6) The lipophilicity of the radiolabelled test molecules was also measured by means of an octanol:saline partition coefficient. […] Centrifugation separated the hydrophobic (octanol) phase and hydrophilic (saline) phase and 100 μL samples in triplicate were taken for radioactive liquid scintillation counting on a Tricarb 2900TR liquid scintillation counter (Perkin-Elmer; Boston, MA, USA). The partition coefficient was calculated as the ratio of radioactivity in the octanol phase to the radioactivity in the aqueous phase.

[4] = pH 7.4
Experimental: as §6

[5] = test system: [^3H]-ADMA transport across the blood-brain and blood-CSF barriers; test: cross-inhibition, in situ perfusion: [^3H]-ADMA with 100 μM unlabelled L-arginine; assay type: in vivo, mouse; settings: for inhibition of [^3H]-ADMA uptake: 100 μM unlabelled L-arginine; for inhibition at 100 µM: Mus musculus
Experimental: (§1) Self-inhibition experiments were also performed. […] Cross-competition experiments were also performed.
(§2) The percentage change in the RTissue uptake values achieved in the absence or presence of an unlabelled inhibitor can be calculated by means of Eq 4.
(§3) %change=RTissue−RInhibition/RTissue×100 Eq 4
(§4) We define RInhibition as the RTissue uptake in the presence of an inhibitor in the artificial plasma.
(§5) A decrease in the uptake of radiolabelled solute in the presence of unlabelled inhibitor is indicative of a saturable influx transport system. Conversely, an increase in the uptake of radiolabelled solute in the presence of unlabelled inhibitor is indicative of a saturable efflux transport system.

[6] = test system: [^3H]-arginine transport across the blood-brain and blood-CSF barriers; test: self-inhibition, in situ perfusion: [^3H]-arginine with 100 μM unlabelled L-arginine; assay type: in vivo, mouse
Experimental: as §1, §2, §3, §4, §5

CAT1 = settings: HEK293 overexpressing CAT1; read-out: IC50, inhibition of CAT1-mediated cellular uptake of ADMA; cited from earlier work
[7] = 500 μM; isolated incubated rat choroid plexus; cited from earlier work
[8] = 100μM unlabelled L-arginine, CSF, 10 minutes

N=C(N)NCCC[C@H](N)C(=O)O [[^3H]-arginine, reference compound]
Kin ([1]; CSF): 1.08 ± 0.24 µL/min/g | Kin ([1]; Caudate nucleus): 5.40 ± 0.67 µL/min/g | Kin ([1]; Cerebellum): 5.10 ± 0.50 µL/min/g | Kin ([1]; Frontal Cortex): 5.84 ± 0.86 µL/min/g | Kin ([1]; Hippocampus): 4.72 ± 0.56 µL/min/g | Kin ([1]; Hypothalamus): 7.26 ± 1.76 µL/min/g | Kin ([1]; Occipital Cortex): 4.98 ± 0.72 µL/min/g | Kin ([1]; Pons): 5.58 ± 0.97 µL/min/g | Kin ([1]; Thalamus): 5.87 ± 1.07 µL/min/g | ability to cross the BBB in situ relative to [^3H]-ADMA ([1]; eight brain regions and capillary depletion samples): more than two-fold in most cases | ability to cross the blood-brain and blood-CSF barriers [1]: can cross the blood-brain barrier (BBB) and the blood-CSF barrier | Kp at 30 min, […] ([1]; CSF): 1.2 ± 0.251 | Kp at […], […] ([1]; CSF): 0.0441 ± 0.0141 | Kp at 30 min, […] ([1]; frontal cortex): 1.77 ± 0.316 | Kp at […], […] ([1]; frontal cortex): 0.29 ± 0.0403 | Kp at 30 min, […] ([1]; pons): ~1.85 | Vi relative to [^14C]-sucrose space in the same experiment ([1]; multiple-time uptake analysis over 30 minutes, data not shown): up to 13 fold | Kin ([2]; Homogenate): 3.97 ± 0.67 µL/min/g | Kin ([2]; Pellet): 0.70 ± 0.10 µL/min/g | Kin ([2]; Supernatant): 2.35 ± 0.42 µL/min/g | ability to cross brain capillary endothelial cell membranes compared to [^3H]-ADMA (38 nM) (hCMEC/D3 cells): more than -three to -five-fold

[^3H]-ADMA [reference compound]
octanol-saline partition coefficient, single tube ([3]; Tube A, B or C): 0.00217 and 0.00237 and 0.00225 | octanol-saline partition coefficient [3]: 0.00226±0.00006 | octanol-saline partition coefficient ([3]; listed as 3H ADMA): 0.00226 | [^3H]-ADMA/ [^3H]-arginine, rate of uptake ([1]; CSF): 249.5% | uptake into the CSF (CSF to plasma) ([1]; CSF, […], data uncorrected for [^14C]-sucrose): approximately 4% | Kin ([1]; CSF): 2.70 ± 0.90 µL/min/g | [^3H]-ADMA/ [^3H]-arginine, rate of uptake ([1]; Caudate nucleus): 44.6% | Kin ([1]; Caudate nucleus): 2.41 ± 0.29 µL/min/g | [^3H]-ADMA/ [^3H]-arginine, rate of uptake ([1]; Cerebellum): 31.7% | Kin ([1]; Cerebellum): 1.62 ± 0.19 µL/min/g | [^3H]-ADMA/ [^3H]-arginine, rate of uptake ([1]; Frontal Cortex): 42.7% | Kin ([1]; Frontal Cortex): 2.49 ± 0.35 µL/min/g | [^3H]-ADMA/ [^3H]-arginine, rate of uptake ([1]; Hippocampus): 46.1% | Kin ([1]; Hippocampus): 2.17 ± 0.17 µL/min/g | [^3H]-ADMA/ [^3H]-arginine, rate of uptake ([1]; Hypothalamus): 41.9% | Kin ([1]; Hypothalamus): 3.04 ± 0.30 µL/min/g | [^3H]-ADMA/ [^3H]-arginine, rate of uptake ([1]; Occipital Cortex): 45.2% | Kin ([1]; Occipital Cortex): 2.25 ± 0.16 µL/min/g | [^3H]-ADMA/ [^3H]-arginine, rate of uptake ([1]; Pons): 44.2% | Kin ([1]; Pons): 2.46 ± 0.34 µL/min/g | [^3H]-ADMA/ [^3H]-arginine, rate of uptake ([1]; Thalamus): 35.8% | Kin ([1]; Thalamus): 2.10 ± 0.17 µL/min/g | distribution into the choroid plexus (tissue to plasma) ([1]; 30 minutes): approximately 40% | distribution into the choroid plexus (tissue to plasma) ([1]; peak at 10 minutes): approximately 240% | distribution (RBRAIN, tissue to plasma) corrected for [^14C]-sucrose ([1]; frontal cortex, 20 minutes): 27.64±4.30% | distribution (RBRAIN, tissue to plasma) corrected for [^14C]-sucrose ([1]; frontal cortex, 30 minutes): 10.41±2.77% | distribution (RBRAIN, tissue to plasma) corrected for [^14C]-sucrose ([1]; frontal cortex, […]): 9.86±1.43% | ability to cross the blood-brain and blood-CSF barriers [1]: can cross the blood-brain barrier (BBB) and the blood-CSF barrier | CNS-to-blood efflux ([1]; multiple-time uptake studies, loss of linearity): significant CNS-to-blood efflux | [^3H]-ADMA/ [^3H]-arginine, rate of uptake ([2]; Homogenate): 31.9% | Kin ([2]; Homogenate): 1.27 ± 0.56 µL/min/g | [^3H]-ADMA/ [^3H]-arginine, rate of uptake ([2]; Pellet): 11.4% | Kin ([2]; Pellet): 0.08 ± 0.20 µL/min/g | [^3H]-ADMA/ [^3H]-arginine, rate of uptake ([2]; Supernatant): 36.6% | Kin ([2]; Supernatant): 0.86 ± 0.16 µL/min/g

N=C(N)NCCC[C@H](N)C(=O)O [L-arginine]
octanol-saline partition coefficient [4]: 0.00149±0.00016 | inhibition of [^3H]-ADMA uptake ([5]; CSF, pineal gland, choroid plexus and pituitary gland, 10 minutes): up to 78.6% | effect on [^3H]-ADMA distribution [5, 8]: no effect | inhibition of [^3H]-ADMA uptake ([5]; brain regions, 10 minutes): up to 80.4% | inhibition at 100 µM ([5]; read-out: inhibition of [^3H]-ADMA distribution): ≤ 80.8% | inhibition of [^3H]-arginine uptake [6, 8]: 62.2% | inhibition of [^3H]-arginine uptake ([6]; 100μM unlabelled arginine, average of capillary depletion samples, 10 minutes): approximately 56% | inhibition of [^3H]-arginine uptake ([6]; 100μM unlabelled arginine, average of eight brain regions, 10-minute perfusion): approximately 67% | inhibition of [^3H]-arginine distribution ([6]; 100μM unlabelled arginine, choroid plexus, 10 minutes): 57.3% | inhibition of [^3H]-arginine distribution ([6]; 100μM unlabelled arginine, pineal gland, 10 minutes): 39.4% | inhibition of [^3H]-arginine distribution ([6]; 100μM unlabelled arginine, pituitary gland, 10 minutes): 48.1% | IC50 (CAT1): 227 µM

N=C(N)NCCC[C@H](N)C(=O)O [arginine]
inhibition at 100 µM ([5]; read-out: inhibition of [^3H]-ADMA (62.5 nM) transport): 64.3 to 80.8%

CNC(=N)NCCC[C@H](N)C(=O)O [N^G-methyl-L-arginine]
effect on [^3H]-arginine uptake [7]: can be inhibited
